This is an account of results in US20200362303A1, “MAINTENANCE-AND-AMPLIFICATION METHOD AND DIFFERENTIATION INDUCTION METHOD FOR PRIMORDIAL GERM CELLS/PRIMORDIAL GERM CELL-LIKE CELLS” (KYOTO UNIVERSITY, priority 2017, published 2020).

The subject of assay [1] is d4 PGCLC. Kind of assay: Measurement of intracellular cAMP concentration (cAMPGlo Max assay). The format is cell-based, mouse. Conditions: pretreated 30 min at room temperature. As for the experimental part: The intracellular cAMP concentration was measured using cAMPGlo Max assay kit (Promega) according to the manufacturer's instructions. A standard curve using purified cAMP was prepared by calculating the Δrelative light unit (ΔRLU) (RLU [0 nM]-RLU [X nM]). For each sample, 1×10^4 d4 PGCLC was pretreated with forskolin and/or rolipram for 30 min at room temperature and the ΔRLU (RLU [untreated sample-RLU [treated sample]) was calculated. An increase in the intracellular cAMP level due to chemical treatments was inferred from the cAMP standard curve. Three biological replicates were analyzed for each sample.

Assay [2] relates to PGCLC. Kind of assay: CsA or FK506 alone at various concentrations on PGCLC proliferation (fold difference d7/d1). The format is cell-based, mouse. The conditions noted are these: 10, 5, 1, 0 μM, in place of FR10.
Assay [3] concerns d4 PGCLC. Kind of assay: Expansion culture of d4 PGCLC on m220-5 feeder (cell number fold increase). The format is cell-based, mouse. The conditions noted are these: 10 μM alone; BVSC BDF1-2; SCF, m220 feeder. The method, then: Since the m220-5 feeder treated with MMC was vulnerable to forskolin and rolipram, m220-5 cells were subcultured 3 times with both forskolin and rolipram each at 10 μM and adapted to these compounds before MMC treatment (1-2 μg/ml for 2 hr). d4 PGCLC or E9.5 PGC(BDF1×Stella-EGFP) was selected by FACS, and the cells were seeded on m220-5 cells in GMEM medium containing 10% KSR, 0.1 mM NEAA, 1 mM sodium pyruvate, 0.1 mM 2-mercaptoethanol, 100 U/ml penicillin, 0.1 mg/ml streptomycin, 2 mM L-glutamine, 2.5% FCS, 100 ng/ml SCF, 10 μM forskolin, and 10 μM rolipram. Half of the culture medium was changed every 2 days.
Expansion culture of PGC/PGCLC to investigate the combined effect of cyclosporin A (CsA) was performed as in Example [I], except that 5 μM CsA was added to the medium in addition to 10 μM forskolin and 10 μM loripram (FR10).

Assay [4] concerns cultured PGCLC. The experiment in a line: Immunofluorescence analysis of STRA8, SCP3, DDX4 in cultured PGCLC. It counts as cell-based, mouse. Conditions: cultured PGCLC, c9; BMP4, 5, 7 combined with RA; BMS493 with BMP2; LDN193189 with RA and BMP2. The method, then: (§1) The PGC/PGCLC expansion medium was constituted of 10% KSR, 2.5% FBS, 0.1 mM NEAA, 1 mM sodium pyruvate, 2 mM L-glutamine, 0.1 mM 2-mercaptoethanol, 100 U/ml penicillin, 0.1 mg/ml […] streptomycin, […] forskolin, and 10 μM rolipram. The entire medium was changed every 2 days from c3. Cytokines/compounds for induction of female fate were provided from c3 to the end of culture. RA and BMP concentrations used were 100 nM and 300 ng/ml, respectively, unless otherwise specified. Brightfield and fluorescence images were captured using an IX73 inverted microscope (Olympus).
Immunofluorescence (IF) analysis was performed as described previously (Hayashi et al, 2012). The following primary antibodies were used: chicken anti-GFP (ab13970; Abeam), rabbit anti-DDX4 (ab13840; Abeam), mouse anti-DDX4 (ab27591; Abeam), rabbit anti-DAZL (ab34129; Abeam), goat anti-DAZL (sc-27333; Santa Cruz), rabbit anti-STRA8 (ab49602; Abeam), mouse anti-SYCP3 (ab97672; Abeam) and rabbit anti-TEX14 (ab41733; Abeam)IgG. The following secondary antibodies were used: Alexa Fluor 488-goat anti-mouse or chicken IgG; Alexa Fluor 568-goat anti-rabbit IgG and Alexa Fluor 633-goat anti-mouse, anti-chicken IgG; Alexa Fluor 488-donkey anti-mouse IgG; Alexa Fluor 568-donkey anti-rabbit IgG and Alexa Fluor 633-donkey anti-goat IgG. IF images were acquired using a confocal microscope [FV1000 (Olympus) or LSM780 (Zeiss)].

Assay [5] deals with BV (+) d4 PGCLCs. The experiment in a line: Compound library screening for PGCLC proliferation (BV fluorescence by cell analyzer). The format is cell-based, mouse. The conditions noted are these: 10 μM; day 7 of culture. As for the experimental part: d4 PGCLC was seeded by FACS on m220-5 feeders in 96-well plates and BV fluorescence was monitored by cell analyzer (Cellavista; SynenTec). Fluorescence photograph for BV was taken by Cellavista cell analyzer with the following settings: 10× objectives; exposure time: 140 μsec; gain: 4×; binning: 4×4; excitation: 500/24 nm; emission: 542/27 nm. BV fluorescence was detected using the following algorithm/attribute parameters: sensitivity: 10; region merging: 200; min. granule intensity: 50; well edge distance: 200; contrast: 1; size: 3,000; intensity: 255; roughness: 500; granularity: 100; granule intensity: 255; granule count: 10,000; longishness: 100; compactness: 1. The value of “cell nucleus” was used for the detection of BV fluorescence.
The compound library was screened at concentrations of 10 μM and 1 μM. […] 200 BV (+) d4 PGCLCs induced from BDF1-2 ESC were seeded in the wells of a 96-well plate, and BV fluorescence was measured on the Cellavista cell analyzer on day 1 of culture (c1), c3, c5 and c7. The value of “cell nucleus” was used for the detection of BV fluorescence. […] For each compound, the fold difference in BV fluorescence between c1 and c7 was calculated for each compound and compounds with a fold difference value exceeding 3SD of the mean of the negative control were identified as those that potentiate PGCLC proliferation.

For assay [6], the system named is female germ cell fate in embryos. The experiment in a line: Administration of LDN193189 to pregnant females, germ cell fate at E14.5. It counts as in vivo, mouse. As for the experimental part:
To administer LDN-193189 to pregnant females (ICR), LDN-193189 (sm10559; Sigma-Aldrich) is dissolved in sterile water, and 2.5 mg LDN-193189 was injected intraperitoneally every 12 hours from E11 to E14 per kg body weight.
(§2) qPCR was performed using CFX384 (Bio-Rad) and Power SYBR Green (ABI, Foster City, Calif.) according to the manufacturer's instructions. Template cDNA was prepared as described in the “Transcriptome analysis” section and the primers used are listed in Primers.

The subject of assay [7] is BMP signaling pathway. Kind of assay: BMP signaling in PGCLC: pSMAD1/5/8 (Western blot) and Id1/Id2 expression. The format is cell-based, mouse. The conditions noted are these: PGCLC stimulated by RA and BMP2. As for the experimental part:
For Western blot analysis, 5×10^4 cells were lysed in SDS sample buffer [62.5 mM Tris-HCl (pH 6.8), 2% SDS, 10% glycerol, 0.025% bromophenol blue and 0.14 M-mercaptoethanol] at 90° C. for 5 min. For detection of phosphorylated (p)SMAD1/5/8, the cells were treated with PhosSTOP (Roche) and complete protease inhibitor cocktail (Roche) before lysis. The extracted protein was separated by SuperSep Ace 10-20% gel (Wako), blotted on iBlot2 PVDF transfer membrane (Thermo Fisher) by iBlot2 dry blotting system (Thermo Fisher), and incubated with the primary antibody: rabbit anti-STRA8 IgG (ab49405; Abeam), mouse anti-α tubulin (T9026; Sigma-Aldrich), rabbit anti-pSMAD1/5/8 IgG (#9511; CST), or rabbit anti-SMAD1 IgG (#97435 CST). Primary antibodies were detected with goat anti-rabbit IgG or sheep anti-mouse IgG conjugated to HRP (A0545, M8642; Sigma-Aldrich), followed by Chemi-Lumi One Super (Nacalai). Chemiluminescence image acquisition and analysis was performed using the Fusion Solo system and Fusion-Capt software (M & S Instruments).
as §2

The test system of assay [8] is PGCLC induced from BVSCDT ESC(XY). The experiment in a line: Screening for factors inducing female germ cell fate: DT and BV expression by FACS at c7. The format is cell-based, mouse. The conditions noted are these: added from c3, read at c7; RA 100 nM, cytokines 500 ng/ml; BMPs in combination with RA. The method, then: as §1
The preparation of d4/c0 PGCLC for FACS is described in “ESC culture/induction and PGCLC induction/culture”. To isolate germ cells in vivo, fetal gonads of BVSC, VR or SG mice were cut and processed for FACS according to the procedure described for d4/c0 PGCLC. Culture PGCLC was also prepared by the same method except that, after dissociation, the cells were washed with 0.1% BSA-DMEM containing 100 μg/ml DNase (Sigma-Aldrich), lysed DNA from dead cells was digested to prevent the formation of cell/debris clumps. Fluorescent activity of BV/SG, SC, or DT/VR was detected with FITC, Horizon V500 or PE-Texas Red channels, respectively. FACS data was analyzed using FlowJo or FACS Diva software package.
In the signal inhibitory experiment, LDN193189 (#04-0074; Stemgent) and BMS493 (B6688; Sigma-Aldrich) dissolved in DMSO were used as ALK2/3 inhibitor and RAR inhibitor, respectively.
For orientation: In flow cytometry, cells or beads pass a laser one at a time.

Regarding `C=C[C@@]1(C)CC(=O)[C@]2(O)[C@@]3(C)[C@@H](O)CCC(C)(C)[C@@H]3[C@H](O)[C@H](OC(C)=O)[C@@]2(C)O1` [forskolin], the “cAMP concentration in PGCLC” value in assay [1] is “about 4 nM/1×10^4 d4 PGCLC”.

For `C=CC[C@@H]1/C=C(\C)C[C@H](C)C[C@H](OC)[C@H]2O[C@@](O)(C(=O)C(=O)N3CCCC[C@H]3C(=O)O[C@H](/C(C)=C/[C@@H]3CC[C@@H](O)[C@H](OC)C3)[C@H](C)[C@@H](O)CC1=O)[C@H](C)C[C@@H]2OC` [FK506, tacrolimus], the “proliferative effect on PGCLCs” value in assay [2] is “did not have a proliferative effect”.

With `COc1ccc(C2CNC(=O)C2)cc1OC1CCCC1` (centres unmarked) [rolipram], the “effect on proliferation of d4 PGCLC (compound alone)” value in assay [3] is on record as “relatively mild”. Further, the “cAMP concentration in PGCLC” value in assay [1] was “about 4 nM/1×10^4 d4 PGCLC”. Turning to `CC1(C)CC=C(C#Cc2ccccc2)c2cc(/C=C/c3ccc(C(=O)O)cc3)ccc21` [BMS493], the “induction of VR/DDX4 and SCP3 (+) cells (meiotic entry)” value (“induction of VR/DDX4 and SCP3” below) in assay [4] is listed as “abolished upregulation of VR/DDX4 as well as induction of SCP3”. Consider `COc1cccc(Nc2c(C(N)=O)cnc3c(C)cc(S(=O)(=O)c4cccc(C(=O)N(C)C)c4)cc23)c1` [GSK256066], for which the “colony formation of BV(+) cells” value in assay [5] is recorded as “formation of plural colonies with unique flat morphology”. With `c1ccc2c(-c3cnn4cc(-c5ccc(N6CCNCC6)cc5)cnc34)ccnc2c1` [LDN193189], the “progression to female germ cell fate” value in assay [6] (every 12 hr from E11.5 to E14.0, read at E14.5) is “caused a significant impairment of progression to female germ cell fate”. Moreover, the “expression of key genes of late PGC/female germ cell development (qPCR)” value in assay [6] (female VR(+) cells at E14.5) is given as “up-regulated key genes in late PGC/female germplasm development”. Besides, the “male germ cell development (qPCR)” value in assay [6] (male VR(+) cells at E14.5) is reported as “unaffected”. The “induction of VR/DDX4 and SCP3” value in assay [4] was “blocked RA- and BMP2-induced VR activation and meiotic entry in a dose-dependent manner”. Also, the “pSMAD1/5/8 and Id1, Id2 expression” value in assay [7] is recorded as “blocked such effects”.

B1: BMP5: bone morphogenetic protein 5 cytokine (R&D Systems) (protein, UniProt P22003 317-454, looked up)
Bone morphogenetic protein 5: AANKRKNQNRNKSSSHQDSSRMSSVGDYNTSEQKQACKKHELYVSFRDLGWQDWIIAPEGYAAFYCDGECSFPLNAHMNATNHAIVQTLVHLMFPDHVPKPCCAPTKLNAISVLYFDDSSNVILKKYRNMVVRSCGCH
Turning to B1, in assay [8], the “DT and BV expression in BV (+) cells” value is “strongly activated DT and simultaneously down-regulated BV”. In addition, in assay [4], the “induction of VR/DDX4 and SCP3” value was “able to induce VR/DDX4 and SCP3(+) cells”.

B2: BMP4: bone morphogenetic protein 4 cytokine (R&D Systems) (protein, UniProt P12644 293-408, looked up)
Bone morphogenetic protein 4: SPKHHSQRARKKNKNCRRHSLYVDFSDVGWNDWIVAPPGYQAFYCHGDCPFPLADHLNSTNHAIVQTLVNSVNSSIPKACCVPTELSAISMLYLDEYDKVVLKNYQEMVVEGCGCR
On to B2, for which the “DT and BV expression in BV (+) cells” value in assay [8] is “strongly activated DT and simultaneously down-regulated BV”. In addition, the “induction of VR/DDX4 and SCP3” value in assay [4] is “able to induce VR/DDX4 and SCP3(+) cells”.

B3: BMP7: bone morphogenetic protein 7 cytokine (R&D Systems) (protein, UniProt P18075 293-431, looked up)
Bone morphogenetic protein 7: STGSKQRSQNRSKTPKNQEALRMANVAENSSSDQRQACKKHELYVSFRDLGWQDWIIAPEGYAAYYCEGECAFPLNSYMNATNHAIVQTLVHFINPETVPKPCCAPTQLNAISVLYFDDSSNVILKKYRNMVVRACGCH
B3: the “DT and BV expression in BV (+) cells” value in assay [8] is “strongly activated DT and simultaneously down-regulated BV”. Further, the “induction of VR/DDX4 and SCP3” value in assay [4] is “able to induce VR/DDX4 and SCP3(+) cells”.
